Measured values as given in US12180174B2, “A2-73 crystalline polymorph compositions of matter and methods of use thereof” (ANAVEX LIFE SCIENCES CORP., priority 2018, dated 2024).

Assays:
[1] = tested on: HeLa cells; assay: LC3-II autophagic flux, Western blot with Bafilomycin A1; assay type: cell-based, human; settings: BafiA1 2 μM, vs control
Description: To study the effect of ANAVEX2-73 on autophagy, human HeLa cells were treated with the compound and autophagic activity was analyzed by investigating the flux of LC3-II. LC3-II is the lipidated form of LC3, which (partially) stays attached to autophagosomes and thus, gets degraded by lysosomes. Therefore, the quantification of the LC3-II flux, using Bafilomycin AI (BafiAi; 2 μM) for inhibition of lysosomal degradation, directly corresponds to cellular autophagic activity. […] There is a concentration-dependent and significant increase in the autophagic-flux following application of ANAVEX2-73: an increase of over 2-fold at 10 μM and over 1.5-fold at 1 μM ANAVEX2-73 (FIG. 35A). As standard positive control to provoke the induction of autophagy, HeLa cells were incubated with EBSS, which resembles nutrient deprivation as autophagy stimulus.
Cell culture and microscopy. HeLa and HEK293A cells were cultured in DMEM (Invitrogen, Carlsbad, CA, USA, 41965062) supplemented with active FBS (Life Technologies GmbH, Carlsbad, CA, USA, 10270106), 1×ABAM (Invitrogen, 15240-062) and 1 mM sodium pyruvate (Invitrogen, 1136-088). After medium change, the cells were treated for 2 h with 10, 1, and 0.1 μM ANAVEX2-73 and PRE-084 (Tocris, Bristol, UK, 0589), respectively; ANAVEX2-73 was provided by ANAVEX Life Sciences Corp, New York, NY, USA. Afterwards Bafilomycin A1 (Bafi.Ai; 2 μM) (Toronto Research Chemicals, North York, ON, Canada, B110000) or DMSO was added for a further 2 h and the cells were eventually harvested. Western blot analyses were performed as described previously. Briefly, cells were subjected to SDS-PAGE using precast NuPAGE 4%-12% Bis-Tris gels (Invitrogen, NP0322). Proteins were detected by chemiluminescence using the Amersham Imager 600 (GE). Confocal fluorescence microscopical analyses of HEK293A cells stably expressing GFP-LC3B were performed with the laser scanning microscope LSM 710 (Zeiss, Oberkochen).

[2] = tested on: human A[342-expressing worms; assay: Abeta42-induced paralysis of worms; assay type: in vivo, C. elegans; settings: up to 12 days, quantified daily, vs M9 buffer
Source text: This encouraged the inventors to further look into the functional consequences of autophagy induction, focusing on the impact of the degradative pathway on proteostasis in vivo. Therefore, human A[342-expressing worms characterized by a time-dependent paralysis were employed, due to the accumulation of A[342 oligomers and high molecular weight aggregates in body wall muscle cells; it is stressed here that A[342-expressing worms are not considered as a model for AD, but rather as an experimental model for general proteostasis stress and proteotoxicity, where protein aggregation in muscle cells leads do a clear-cut phenotype (here, paralysis). A1342 protein aggregates were stained in situ with thioflavine. […] The accumulation of A[342 aggregates in the muscle cells is known to lead to an enhanced paralysis of the worms over time. […] C. elegans were treated with the compound (or M9 buffer as control) up to 12 days and paralysis was quantified daily. […]
For analysis of paralysis rate, synchronous CL2006 nematodes were cultivated at 15° C. on plates seeded with HB101 E. coli re-suspended in M9 (control) or 100 μM and 50 μM ANAVEX2-73. […] Worms were mounted on 2% agar pads on a glass slide and confocal fluorescence microscopical analyses were performed with the LSM 710 (Zeiss, Oberkochen) laser scanning microscope.

[3] = tested on: C. elegans; assay: GFP-LGG-1-II autophagic flux in worms, Western blot; assay type: in vivo; settings: 80 μM; BafiA1 or DMSO for 6 h
Source text: Autophagy modulation by ANAVEX2-73 in vitro and its impact on some key autophagy network factors prompted the inventors to further analyze the impact of Sig-1 R activation by ANAVEX2-73 on autophagy and proteostasis also in vivo, employing the C. elegans model. The nematode ortholog of the human Sig-1 R is W08F4.3 and is expressed in several tissues, including the muscular system. To monitor autophagic flux in vivo the inventors employed a GFP-LGG-1 reporter worm strain. LGG-1 is a nematode ortholog of the mammalian GABARAP, and the GFP-tagged protein can be used to evaluate autophagic activity by Western blotting as well as confocal fluorescence microscopy. Employing Western blotting, the levels of GFP-LGG-1-II plus BafiA1 and without BafiA1 were analyzed, analogously to the flux measurements in HeLa cells as shown in FIG. 37.
C. elegans strains, maintenance, methods. C. elegans were maintained according to standard procedures on nematode growth medium (NGM) plates seeded with HB101 E. coli. […]
For analysis of autophagic activity, synchronous nematodes expressing GFP::LGG-1 were cultivated at 20° C. […] Thereafter worms were lysed for Western blotting or analyzed by confocal fluorescence microscopy.
Western blot analyses were performed as described previously. […] Proteins were detected by chemiluminescence using the Fuji LAS-3000 dark box (Fujifilm, Dusseldorf).

CN(C)CC1CCOC1(c1ccccc1)c1ccccc1.Cl (centres unmarked) [ANAVEX2-73, tetrahydro-N,N-dimethyl-2,2-diphenyl-3-furanmethanamine hydrochloride]
increase in autophagic flux (LC3-II) ([1]; 1 μM): over 1.5 fold
increase in autophagic flux (LC3-II) ([1]; 10 μM): over 2 fold
paralysis ([2]; 50 NM): clear reduction in paralysis
paralysis ([2]; 100 NM): clear reduction in paralysis
enhancement of autophagic flux (GFP-LGG-1-II, Western blot) [3]: ~2 fold
